SMILES	melting point [°C]
O=c1n(-c2cc(O)c(Cl)cc2Cl)nc2n1CCCC2	211 to 212
O=c1[nH]c2c(Cl)cccc2c(=O)n1CCCN1CC=C(c2cccc(Cl)c2)CC1	210 to 215
O=CN1CC2CCCc3c(C(=O)CCCl)ccc1c32 (stereo unspecified)	82 to 85
CCOC(=O)C(=O)OCc1ccc(OC)cc1	44 to 45
COc1cc(C)nc(NC(=O)NS(=O)(=O)c2ccsc2C2=CCCCC2)n1	190 to 192
CCc1nn(C2CCC2)c2cc(C(=O)O)ccc12	148 to 150
C=C1N(c2cccc3ccccc23)C(=O)OC12CCN(CCC=C(c1ccc(F)cc1)c1ccc(F)cc1)CC2	99 to 101
COc1cccc(NC(=O)NC2N=C(C)c3cccc(C)c3N(CC(=O)N3CC4CCC(CC4)C3)C2=O)c1 (stereo unspecified)	170 to 171
O=C(C=C(c1cc(Cl)cc(Cl)c1)C(F)(F)F)c1ccc(C(=O)Nc2ncc(Cl)cn2)cc1	71 to 76
CCOc1ccc(C(=O)CN2CCOCC2)cc1-c1nc2c(C)cccc2c(=O)[nH]1	172 to 173
O=C1CC(c2cccc(-n3ccnn3)c2)=Nc2cc(O)c(-c3ccc(F)cc3)cc2N1	> 250
COc1cccc(N2CCC(C(N)=O)CC2)c1	153 to 156
Cn1cc(OS(C)(=O)=O)c(=O)c2ccc(OCC(F)(F)F)cc21	110 to 112
FC(F)(F)c1sc(S)nc1Cl	142 to 144
O=S(=O)(O)CCc1cccnc1	275 to 278
C#Cc1cc(Nc2ncnc3cnc(NC(=O)CP(=O)(OCC)OCC)cc23)ccc1Cl	124 to 127
CC(C)(C)OC(=O)Nc1ccc([N+](=O)[O-])cc1	112 to 114
Nc1nc(O)c2cc(CCc3ccc(C(=O)N[C@@H](CCC(=O)O)C(=O)O)cc3)cnc2n1	> 200
Cn1c(COc2ccc(CC3SC(=O)NC3=O)cc2)nc2ccc(Oc3cccc(NC(=O)Nc4cccc(C#N)c4)c3)cc21 (stereo unspecified)	148 to 154
O=C1Nc2cccc(-c3ccc(Cl)cc3Cl)c2/C1=C/c1ccc[nH]1	185 to 187
COc1c(CC(C)(C)C(=O)O)n(Cc2ccc(Cl)cc2)c2ccc(O)cc12	137
CSC=CC(C)(C)C(=O)O	49 to 51
O=C(O)c1cn(CCF)c2cc(Cl)c(F)cc2c1=O	262 to 264
Nc1c(-c2cc(Cl)ccc2O)c2cc(Cl)ccc2[nH]c1=O	184 to 185
Cc1cccnc1NC(=O)C(C)(C)C	90 to 92
COC(=O)c1ccc(C=NNc2cc(C(C)(C)C)cc(C(C)(C)C)c2)cc1	215 to 220
COC(C)(C)C#Cc1ncn2c1CN(C)C(=O)c1cc(F)ccc1-2	149 to 150

SMILES	melting point [°C]
CCc1cccnc1NC(=O)OC(C)(C)C	101 to 102
COc1cc(OC)c(-c2cccs2)cc1/C=C/C(=O)c1ccc(S(=O)(=O)Nc2ccc(C(F)(F)F)cn2)cc1	228 to 229
CC(=O)OCC1OC(n2c(Br)nc3cc(Cl)c(Cl)cc32)C(O)C1O (stereo unspecified)	85 to 95
COC(=O)c1cc2c(cc1N)OCCO2	73 to 77
Nc1nc(CCCCN2CCN(c3ncccn3)CC2)cs1	101 to 104
CC(=O)Oc1cc2c(c(OC(C)=O)c1)C1CCC3(C)C(=O)CCC3C1CC2 (stereo unspecified)	179 to 180
CCn1nc(C)c(N)c1C(N)=O	143 to 145
Cc1nnc2n1-c1sc(Cl)cc1C(c1ccccc1C(F)(F)F)=NC2	193 to 195
CNC(=O)[C@@H]1C[C@H](SCc2ccc(OC)cc2)CN1C	82 to 84
C[C@H]1Cc2cccc3sc(=O)n(c23)C1	54 to 56
CC(C)CC(=O)N[C@H]1CC[C@H](CCN2CCN(c3nccc4c3CCO4)CC2)CC1	202
CNC(=NS(=O)(=O)C(F)(F)F)SC	88 to 89
O=C(C[C@H]1CCCO1)N[C@H]1CC[C@H](CCN2CCC(c3cccc4c3CCO4)CC2)CC1	192
COc1cccc([C@H]2O[C@H](CC(=O)Nc3cc(Cl)cc4cc(C(=O)O)oc34)C(=O)N(CC(C)(C)CO)c3ccc(Cl)cc32)c1OC	179 to 180
NC(=O)c1c(F)ccc(OCc2nc3cc(-c4ccncc4)ccc3s2)c1F	255 to 258
CCCc1nc(N)nc(N)c1N1CCN(c2ccc(C(=O)OCC)cc2)CC1	215 to 216
O=C1NCC=Cc2cc[nH]c21	155 to 160
CCN(CC)c1ccc(N(c2ccc(N(CC)CC)cc2)C2(c3ccc(N(CC)CC)cc3C)OC(=O)c3ccccc32)cc1 (stereo unspecified)	58 to 71
CN(C)C(=O)c1ccc(CCC(=O)c2cccc(OCc3ccc4ccc(Cl)cc4n3)c2)o1	129 to 131
CCNC(=O)OCCCCCCCCC1CC2=C(C1)C(=O)C(OC)=C(OC)C2=O	85 to 86
NC[C@@H]1CC[C@H](C(=O)O)C1 (relative stereo)	186 to 188
CCOC(=O)C1Cc2ccc(OC)c(Cl)c2O1 (stereo unspecified)	108 to 110
CCOC(=O)c1csc(Cc2ccc(NC(=O)/C=C/c3cnn(C)c3-c3ccc(F)cc3)cc2)n1	189 to 190
CC(C)(Cl)CC(=O)c1cc(C(C)(C)C)c(O)c(C(C)(C)C)c1	101 to 102
O=C(N[C@H]1CCCNC1=O)c1cccc(F)c1F	160 to 162
COc1ccnc(C(C)Sc2nc3cc(OC(F)F)c(C)cc3[nH]2)c1 (stereo unspecified)	183 to 184
CC(C)N(Cc1ccccc1)c1ncnc2c(N3CCOCC3)nc(N3CCC(N(C)C)CC3)nc12	122 to 125

More lines, now with the values ahead:

melting point [°C]	SMILES
> 250	Cc1cc2c(NCc3ccc4c(c3)OCO4)nc(-c3ccc(C(=O)O)cc3)nc2s1
189 to 190	CNC=Nc1ccc(-c2c[nH]cn2)cc1
276 to 278	O=C1c2c(c(=O)n3nc(-c4ccccc4)cc3n2Cc2ccccc2)CN1C1CCCCC1
115	CCCCCCOc1ccc(-c2ncc(-c3ccc(OCc4ccccc4)c(F)c3F)cn2)cn1
124	CC(COS(C)(=O)=O)N1c2ccccc2Sc2ccc(C#N)cc21 (racemic)
175 to 178	CCCNC(=O)c1nc(C)ccc1C(=O)Nc1cccc2ccccc12
218 to 221	CN1CCN(c2cccc(Oc3cc(=O)[nH]c4ccccc34)c2)CC1
88 to 90	NC(=O)C1(c2ccccc2)CCN(Cc2ccccc2)C1 (stereo unspecified)
133 to 135	O=C1Cc2ccccc2Sc2c1ccc(Cl)c2Cl
138 to 140	O=C(Nc1cccc(OCc2cccnc2)c1)N1CCCC1
89 to 91	Cc1cc(-c2ccccc2)co1
78 to 80	O=C1N(Cc2ccc(C(F)(F)F)o2)c2ccccc2C12COc1cc(OC(F)(F)F)ccc12 (stereo unspecified)
110 to 112	COc1ccc(N2CCN(CC(O)COc3ccc(OCc4ccccc4)cc3)CC2)c(OC)c1 (stereo unspecified)
90 to 95	O=C(c1cc2ccccc2cn1)N(O)CCc1ccccc1
> 310	Cc1ccc(-c2c(C(N)=O)n(C)c(=O)c3ncccc23)cc1
95 to 97	CCOC(=O)N1CCC2=C(C1)SCC2(NC(=O)CN)C(=O)c1ccccc1Cl (stereo unspecified)
113 to 116	CCCNC(=S)NCCCCn1c(-c2ccccc2)nc2c(N)nc3ccccc3c21
154 to 157	Nc1nc2ccc(Oc3ccc4c(c3)OCO4)cc2s1
48 to 50	COC(=O)c1ccc(OC)cc1C(C)=O
180	COc1ccc(S(=O)(=O)C(Cc2ccccc2)C(=O)NO)cc1 (stereo unspecified)
235	Cc1cccc(C)c1CNc1cc(C2=NCCO2)cc2c1nc(C)n2C
246 to 247	O=C1Nc2cc(C(F)(F)F)ccc2Oc2ccccc21
132	O=S(=O)(CC(O)(CBr)c1cccc(Br)c1)c1ccccc1 (stereo unspecified)
71 to 72	COC1C=C(c2ccc(C#N)cc2)C(OC)O1 (stereo unspecified)

melting point [°C]	SMILES
137 to 145	C=CC[C@H](C(N)=O)[C@@H](CC(C)C)C(=O)NC1C(=O)N(C)c2ccccc2-c2ccccc21 (stereo partly specified)
256 to 258	Cc1nnc2ccc(-c3cccc(NC(=O)C(C)(C)C)c3)nn12
256 to 258	CC(=O)NC[C@H]1CN(c2ccc(C(=O)c3cnc4cc(-c5ccccc5)ccn34)cc2)C(=O)O1
121 to 123	Cc1cn(Nc2ccncn2)c2ccccc12
67 to 70	COc1ccccc1NS(=O)(=O)c1ccc(COC2CCCCO2)cc1 (stereo unspecified)
141 to 142	Cc1c(CCl)oc2ccc([N+](=O)[O-])cc12
129	Cc1cc2c(cc1Br)OCC(C)(C)CC2(O)c1ccccn1 (stereo unspecified)
66 to 68	CCC(Oc1cccc(C(F)(F)F)c1)C(=O)NCc1ccccc1Cl (stereo unspecified)
129	Cn1nnc2cc(C(O)c3ccccc3)ccc21 (stereo unspecified)
148	Cc1cccc2nc3n(c12)CC(c1ccccn1)S3=O (stereo unspecified)
129 to 130	CCOc1ccc(OCc2ccc(OCc3nc(-c4ccccc4)oc3C)cc2)cc1CCC(=O)O
82 to 84	CCCCCCCCOc1cc(-c2ccccc2)c(OCC(=O)O)c(-c2ccccc2)c1
148 to 150	COc1ccc(Oc2ccn3nc(-c4ccccc4)c(-c4ccc(=O)n(C(C)C)n4)c3c2)nc1
99 to 100	CC(C)CCC1(CCc2ccccc2)CC(O)=CC(=O)O1 (stereo unspecified)
137 to 138	CC1=CC(c2ccccc2[N+](=O)[O-])C=C(CN2C(=O)c3ccccc3C2=O)N1 (stereo unspecified)
275	O=C(Nc1nc(C2CC2)no1)C1c2ccccc2Oc2ccccc21
172 to 174	CCc1cn(C2CC(O)C(CO)O2)c(=O)nc1NC(=O)c1ccccc1 (stereo unspecified)
155 to 156	CN(NC(=O)c1ccccc1C(=O)O)C(=S)Nc1ccccc1
115 to 117	O=C(NCc1ccccc1Cl)c1cccnc1Oc1cccc(F)c1
99 to 100	CC(C)CCNc1nc2ccccc2cc1[N+](=O)[O-]
202 to 203	Nc1ncc(-c2cnc3ccc(-c4ccc(OCC5(NC(=O)OCc6ccccc6)COC5)cc4)nn23)cc1C(F)(F)F
218 to 220	Nc1ccc(S(=O)c2ccc(-c3ccc(Br)cc3)cc2)cc1[N+](=O)[O-] (stereo unspecified)
142 to 143	COc1cc(OC)c2cc(-c3ccc(F)cc3)oc2c1
